Values quoted from earlier work, collected in PMC4546427, “Stereoselective Regulation of P-gp Activity by Clausenamide Enantiomers in Caco-2, KB/KBv and Brain Microvessel Endothelial Cells” (PLoS ONE, 2015).
Where two headings read alike, the source gives them in different places.

Tested on: P-gp ATPase
Set-up: method as in PMID 9300798
Settings: cited from earlier work

CC(=O)[C@H]1CC[C@H]2[C@@H]3CCC4=CC(=O)CC[C@]4(C)[C@H]3CC[C@]12C [progesterone]
Effect on P-gp ATPase activity (concentrations above 25 μmol/L): inhibited
Effect on P-gp ATPase activity (low concentration 6.3 μmol/L): stimulated
